Drawing on patent publication US9884063B2, “Amido-substituted azole compounds” (Bayer Pharma Aktiengesellschaft, priority 2014, dated 2018), this text covers IC50 for 19 compounds.

The subject of test [1] is wildtype Wnt signaling cascade. In words: HEK293 TOP Assay (Super TopFlash luciferase reporter, Wnt-3a stimulated). The format is cell-based. The settings on record: Homo sapiens, HEK293, 16 h. The method in brief:
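Compounds (50 μM down to 15 nM, 3.16-fold steps, in CAFTY buffer pH 7.4, 2 mM Ca2+, 0.01% BSA) tested in parallel on TOP and FOP HEK293 reporter lines to define selective wildtype Wnt inhibition. Pathway driven by recombinant human Wnt-3a applied at 2500–5 ng/ml in two-fold dilutions.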

The target of test [2] is T1, TNKS1 (Homo sapiens, UniProt O95271).
T1 sequence (O95271 1-1327): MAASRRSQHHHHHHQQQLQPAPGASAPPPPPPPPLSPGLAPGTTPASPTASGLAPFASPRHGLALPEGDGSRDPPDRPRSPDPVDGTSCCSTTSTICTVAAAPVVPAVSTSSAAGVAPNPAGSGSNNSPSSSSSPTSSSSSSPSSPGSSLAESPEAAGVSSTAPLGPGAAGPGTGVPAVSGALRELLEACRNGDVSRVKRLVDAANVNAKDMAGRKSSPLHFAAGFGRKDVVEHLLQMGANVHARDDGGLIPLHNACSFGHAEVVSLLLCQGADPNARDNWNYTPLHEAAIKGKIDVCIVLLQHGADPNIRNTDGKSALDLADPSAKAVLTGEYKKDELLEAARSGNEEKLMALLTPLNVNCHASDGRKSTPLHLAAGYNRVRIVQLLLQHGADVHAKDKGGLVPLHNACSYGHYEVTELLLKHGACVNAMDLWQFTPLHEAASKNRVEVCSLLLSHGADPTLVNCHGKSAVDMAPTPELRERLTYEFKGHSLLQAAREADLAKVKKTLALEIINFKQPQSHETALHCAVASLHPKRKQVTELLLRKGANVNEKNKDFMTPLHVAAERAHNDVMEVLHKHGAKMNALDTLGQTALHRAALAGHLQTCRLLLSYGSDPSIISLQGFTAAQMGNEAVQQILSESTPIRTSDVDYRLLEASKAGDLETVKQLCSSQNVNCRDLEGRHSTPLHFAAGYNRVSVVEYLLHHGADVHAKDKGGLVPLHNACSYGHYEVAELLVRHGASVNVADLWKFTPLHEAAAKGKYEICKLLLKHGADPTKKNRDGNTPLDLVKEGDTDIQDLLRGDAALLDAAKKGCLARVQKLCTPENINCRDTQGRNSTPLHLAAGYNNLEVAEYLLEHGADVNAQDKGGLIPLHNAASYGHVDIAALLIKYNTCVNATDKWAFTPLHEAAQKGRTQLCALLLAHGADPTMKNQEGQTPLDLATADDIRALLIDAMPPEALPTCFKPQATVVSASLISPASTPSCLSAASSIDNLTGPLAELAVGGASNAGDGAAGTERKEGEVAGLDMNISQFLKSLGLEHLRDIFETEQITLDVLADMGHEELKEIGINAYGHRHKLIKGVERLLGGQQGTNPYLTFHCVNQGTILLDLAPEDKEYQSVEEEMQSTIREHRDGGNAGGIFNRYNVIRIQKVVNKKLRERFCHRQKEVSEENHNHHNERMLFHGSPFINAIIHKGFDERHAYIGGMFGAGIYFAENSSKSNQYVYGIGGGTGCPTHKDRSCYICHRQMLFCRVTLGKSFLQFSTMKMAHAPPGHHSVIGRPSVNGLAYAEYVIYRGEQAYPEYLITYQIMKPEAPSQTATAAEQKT
In words: Modified TNKS1 Assay 2 (auto-parsylation, [3H]-NAD+ SPA). The format is biochemical. The settings on record: 6 nM TNKS1, 96 well. As to the method: The potency of selected compounds according to the invention was assessed applying an modified in vitro inhibition assay. Here, the TNKS1 catalyzed NAD^+-dependent ribosylation of the enzyme itself (auto-parsylation) was detected using [^3H]-NAD^+ as substrate and applying the scintillation proximity assay (SPA) method to detect tritium-labeled, parsylated TNKS1. The intensity of the readout signal is proportional to the incorporated [^3H]-NAD^+. Inhibition of TNKS1 leads to a decreased incorporation of [^3H]-NAD^+ and consequently to a lower readout signal intensity. The concentration of a test compound which inhibits the enzyme activity by 50% (corresponds to half of the normed readout signal intensity) is reported as IC50.
The assay was conducted in a 96 well MTP format with the identical TNKS1 enzyme sample and NAD^+ sample as in the histone ribosylation assay with the following modifications: TNKS1 enzyme sample was diluted with a modified assay buffer (50 mM MES pH 7.0, 1 mM DTT, 0.01% Triton X-100) to a final concentration of 6 nM TNKS1 and 10×NAD^+ solution was diluted with the modified assay buffer (s. above) to a final 0.445×NAD^+ solution doped with 100 Bq/ul [^3H]-NAD^+[Catalog #NET443H050UC, Perkin Elmer, Waltham, Mass., USA]. Substrate solution (10 ul) was incubated with different test compound concentrations (2.5 ul in 10% DMSO in modified assay buffer) or control (2.5 ul 10% DMSO in modified assay buffer only) and enzyme (10 ul) over night at room temperature. Incorporated tritium was measured after addition of 50 ul SPA beads (1 mg/ml) [Catalog #RPNQ0095 20 mg/ml, Perkin Elmer, Waltham, Mass., USA; diluted 1:10 with Dulbecco's phosphate buffered saline, PBS Catalog #D8537, Sigma-Aldrich, Steinheim, Germany] and detection of the photon emission with a beta count plate reader [Wallac MicroBeta®, Perkin Elmer, Waltham, Mass., USA].

The mark [3] stands for this setting: HEK293 TOP reporter cell line, Wnt-3a at EC50, 16 hours incubation, compound dilution series 50 μM to 15 nM.
Where [4] appears, read: HEK293 TOP reporter cells, Wnt3a at EC50, 16 hours, luciferase.

Structures are written as SMILES.

As for `CNC(=O)c1nc[nH]c1C(=O)Nc1ccc(NC(=O)c2cccc(Cl)c2Cl)cc1` [Example 1, N^5-{4-[(2,3-dichlorobenzoyl)amino]phenyl}-N^4-methyl-1H-imidazole-4,5-dicarboxamide], the IC50 (commonly the concentration that inhibits the measured activity by half) in test [1] (setting [3]) worked out at 1200 nM; in test [1] (setting [4]) it was 1100 nM.

As for `CNC(=O)c1nc[nH]c1C(=O)Nc1ccc(NC(=O)c2ccc(N3CCCC3)cc2F)cc1` [Example 3, N^5-(4-{[2-fluoro-4-(pyrrolidin-1-yl)benzoyl]amino}phenyl)-N^4-methyl-1H-imidazole-4,5-dicarboxamide], the half-maximal inhibitory concentration (IC50) in test [1] (setting [3]) and in test [1] (setting [4]) was 9700 nM in each case.

`CNC(=O)c1nc[nH]c1C(=O)Nc1ccc(NC(=O)c2ccc(N(C)C)cc2Cl)cc1` [Example 4, N^5-(4-{[2-chloro-4-(dimethylamino)benzoyl]amino}phenyl)-N^4-methyl-1H-imidazole-4,5-dicarboxamide]: the values for the IC50 in test [2], in test [1] (setting [3]) and in test [1] (setting [4]) were 80 nM, 910 nM and 910 nM, respectively.

With `CNC(=O)c1nc[nH]c1C(=O)Nc1ccc(NC(=O)c2ccc(F)cc2Cl)c(C)c1` [Example 5, N^5-{4-[(2-chloro-4-fluorobenzoyl)amino]-3-methylphenyl}-N^4-methyl-1H-imidazole-4,5-dicarboxamide], the 50% inhibitory concentration (IC50) stood at 320 nM in test [2], 240 nM in test [1] (setting [3]) and 240 nM in test [1] (setting [4]).

For `CNC(=O)c1nc[nH]c1C(=O)Nc1ccc(NC(=O)c2ccncc2Cl)cc1` [Example 6, N^5-{4-[(3-chloroisonicotinoyl)amino]phenyl}-N^4-methyl-1H-imidazole-4,5-dicarboxamide], the values for the IC50 in test [2], in test [1] (setting [3]) and in test [1] (setting [4]) were 150 nM, 230 nM and 230 nM, respectively.

Turning to `CCC(C)NC(=O)c1ncoc1C(=O)Nc1ccc(NC(=O)c2ccc(F)cc2Cl)cc1` (stereo not shown) [Example 7, N^4-sec-butyl-N^5-{4-[(2-chloro-4-fluorobenzoyl)amino]phenyl}-1,3-oxazole-4,5-dicarboxamide], the half-inhibitory concentration (IC50) in test [1] (setting [3]) and in test [1] (setting [4]) was 5650 nM throughout.

`CC(NC(=O)c1ncoc1C(=O)Nc1ccc(NC(=O)c2ccc(F)cc2Cl)cc1)c1ccccc1` (stereo not shown) [Example 8, N^5-{4-[(2-chloro-4-fluorobenzoyl)amino]phenyl}-N^4-(1-phenylethyl)-1,3-oxazole-4,5-dicarboxamide]: the IC50 in test [1] (setting [3]) and in test [1] (setting [4]) was 4600 nM each time.

`CNC(=O)c1nc[nH]c1C(=O)Nc1ccc(NC(=O)c2ccc(Cl)cc2Cl)cc1` [Example 9, N^5-{4-[(2,4-dichlorobenzoyl)amino]phenyl}-N^4-methyl-1H-imidazole-4,5-dicarboxamide]: the IC50 in test [2] is 150 nM; in test [1] (setting [3]) it was 140 nM; in test [1] (setting [4]), 150 nM.

With `CC(C)NC(=O)c1nc[nH]c1C(=O)Nc1ccc(NC(=O)c2ccc(F)cc2Cl)cc1` [Example 10, N^5-{4-[(2-chloro-4-fluorobenzoyl)amino]phenyl}-N^4-isopropyl-1H-imidazole-4,5-dicarboxamide], the half-maximal inhibitory concentration (IC50) in test [2] came to 290 nM; in test [1] (setting [3]), 170 nM; in test [1] (setting [4]) it was 180 nM.

Consider `CNC(=O)c1ncoc1C(=O)Nc1ccc(NC(=O)c2ccc(F)cc2Cl)cc1` [Example 11, N^5-{4-[(2-chloro-4-fluorobenzoyl)amino]phenyl}-N^4-methyl-1,3-oxazole-4,5-dicarboxamide], for which the IC50 came out at 150 nM in test [2], 730 nM in test [1] (setting [3]) and 730 nM in test [1] (setting [4]).

Consider `CNC(=O)c1nc[nH]c1C(=O)Nc1ccc(NC(=O)c2ccc(F)cc2Cl)cc1` [Example 12, N^5-{4-[(2-chloro-4-fluorobenzoyl)amino]phenyl}-N^4-methyl-1H-imidazole-4,5-dicarboxamide], for which the IC50 stood at 20 nM in test [2], 140 nM in test [1] (setting [3]) and 150 nM in test [1] (setting [4]).

As for `COC(=O)c1ncoc1C(=O)Nc1ccc(NC(=O)c2ccc(F)cc2Cl)cc1` [Example 14, Methyl 5-({4-[(2-chloro-4-fluorobenzoyl)amino]phenyl}carbamoyl)-1,3-oxazole-4-carboxylate], the results for the IC50 in test [1] (setting [3]) and in test [1] (setting [4]) were 9350 nM and 11500 nM, respectively.

As for `CC(C)NC(=O)c1ncoc1C(=O)Nc1ccc(NC(=O)c2ccc(F)cc2Cl)cc1` [Example 15, N^5-{4-[(2-chloro-4-fluorobenzoyl)amino]phenyl}-N^4-isopropyl-1,3-oxazole-4,5-dicarboxamide], the IC50 in test [1] (setting [3]) and in test [1] (setting [4]) was 1250 nM in each case.

As to `CNC(=O)c1nc[nH]c1C(=O)Nc1ccc(NC(=O)c2ccc(F)cc2Cl)nc1` [Example 16, N^5-{6-[(2-chloro-4-fluorobenzoyl)amino]pyridin-3-yl}-N^4-methyl-1H-imidazole-4,5-dicarboxamide], the values for the half-inhibitory concentration (IC50) in test [2], in test [1] (setting [3]) and in test [1] (setting [4]) were 30 nM, 180 nM and 180 nM, respectively.

As for `CNC(=O)c1nc[nH]c1C(=O)Nc1ccc(NC(=O)c2c(-c3ccccc3)nn(C)c2Cl)cc1` [Example 17, N^5-(4-{[(5-chloro-1-methyl-3-phenyl-1H-pyrazol-4-yl)carbonyl]amino}phenyl)-N^4-methyl-1H-imidazole-4,5-dicarboxamide], the IC50 in test [1] (setting [3]) and in test [1] (setting [4]) was 3550 nM throughout.

For the compound `O=C(Nc1ccc(NC(=O)c2[nH]cnc2C(=O)NCc2ccccc2)cc1)c1ccc(F)cc1Cl` [Example 18, N^4-benzyl-N^5-{4-[(2-chloro-4-fluorobenzoyl)amino]phenyl}-1H-imidazole-4,5-dicarboxamide], the IC50 in test [1] (setting [3]) is 410 nM; in test [1] (setting [4]), 340 nM.

As to `CNC(=O)c1nc[nH]c1C(=O)Nc1ccc(NC(=O)c2ccccc2C)cc1` [Example 19, N^4-methyl-N^5-{4-[(2-methylbenzoyl)amino]phenyl}-1H-imidazole-4,5-dicarboxamide], the IC50 in test [2] is 1800 nM; in test [1] (setting [3]), 1150 nM; in test [1] (setting [4]) it was 1250 nM.

For the compound `CNC(=O)c1nc[nH]c1C(=O)Nc1ccc(NC(=O)c2c(C)cc(F)cc2C)cc1` [Example 23, N^5-{4-[(4-fluoro-2,6-dimethylbenzoyl)amino]phenyl}-N^4-methyl-1H-imidazole-4,5-dicarboxamide], the IC50 in test [1] (setting [3]) and in test [1] (setting [4]) was 660 nM throughout.

In test [1] (setting [3]), `CNC(=O)c1[nH]cnc1C(=O)Nc1ccc(NC(=O)c2cc(Cl)sc2Cl)cc1` [Example 213, N^4-(4-{[(2,5-dichloro-3-thienyl)carbonyl]amino}phenyl)-N^5-methyl-1H-imidazole-4,5-dicarboxamide] came in with an IC50 of 460 nM.
